Experimental data from ChEMBL document CHEMBL4373665, “Discovery of new non-acidic lonazolac analogues with COX-2 selectivity as potent anti-inflammatory agents” (Medchemcomm, 2019).

Experiments:
[1] = Ulcerogenic activity in rat assessed as average number of ulcers formed at 50 mg/kg, sc qd for 4 days post 18 hrs fasting measured after 4 days; format: toxicity, organism-based; settings: in vivo, 96 h
[2] = Nephrotoxicity in rat assessed as effect on proximal tubule at 50 mg/kg by hematoxylin and eosin staining based assay; format: toxicity, organism-based; settings: in vivo
[3] = Ulcerogenic activity in rat assessed as effect on gastric submucosa at 50 mg/kg by hematoxylin and eosin staining based assay; format: toxicity, organism-based; settings: in vivo
[4] = Hepatotoxicity in rat assessed as effect on central veins in liver at 50 mg/kg by hematoxylin and eosin staining based assay; format: toxicity, organism-based; settings: in vivo
[5] = tested on: Rattus norvegicus; assay: Anti-inflammatory activity in albino rat model of carrageenan-induced paw edema assessed as inhibition of carrageenan-induced paw edema at 100 mg/kg, po administered as single dose prior to carrageenan challenge measured after 4 hrs relative to control; format: functional
[6] = tested on: Rattus norvegicus; assay: Anti-inflammatory activity in albino rat model of carrageenan-induced paw edema assessed as inhibition of carrageenan-induced paw edema at 100 mg/kg, po administered as single dose prior to carrageenan challenge measured after 1 hr relative to control; format: functional
[7] = Hepatotoxicity in rat assessed as effect on hepatocytes in periportal area at 50 mg/kg by hematoxylin and eosin staining based assay; format: toxicity, organism-based; settings: in vivo
[8] = Ulcerogenic activity in rat assessed as incidence of gastric ulceration at 50 mg/kg, sc qd for 4 days post 18 hrs fasting measured after 4 days relative to control; format: toxicity, organism-based; settings: in vivo, 96 h
[9] = tested on: Rattus norvegicus; assay: Anti-inflammatory activity in albino rat model of carrageenan-induced paw edema assessed as inhibition of carrageenan-induced paw edema at 100 mg/kg, po administered as single dose prior to carrageenan challenge measured after 3 hrs relative to control; format: functional
[10] = Hepatotoxicity in rat assessed as effect on bile ducts at 50 mg/kg by hematoxylin and eosin staining based assay; format: toxicity, organism-based; settings: in vivo
[11] = Ulcerogenic activity in rat assessed as effect on parietal cells at 50 mg/kg by hematoxylin and eosin staining based assay; format: toxicity, organism-based; settings: in vivo
[12] = Nephrotoxicity in rat assessed as effect on glomeruli at 50 mg/kg surrounded by Bowmann's capsule by hematoxylin and eosin staining based assay; format: toxicity, organism-based; settings: in vivo
[13] = Ulcerogenic activity in rat assessed as effect on mucosal blood vessel at 50 mg/kg by hematoxylin and eosin staining based assay; format: toxicity, organism-based; settings: in vivo
[14] = Ulcerogenic activity in rat assessed as ulcer index at 50 mg/kg, sc qd for 4 days post 18 hrs fasting measured after 4 days; format: toxicity, organism-based; settings: in vivo, 96 h
[15] = tested on: Rattus norvegicus; assay: Anti-inflammatory activity in albino rat model of carrageenan-induced paw edema assessed as inhibition of carrageenan-induced paw edema at 100 mg/kg, po administered as single dose prior to carrageenan challenge measured after 12 hrs relative to control; format: functional
[16] = Nephrotoxicity in rat assessed as effect on distal tubule at 50 mg/kg by hematoxylin and eosin staining based assay; format: toxicity, organism-based; settings: in vivo
[17] = Ulcerogenic activity in rat assessed as effect on gastric mucosa at 50 mg/kg by hematoxylin and eosin staining based assay; format: toxicity, organism-based; settings: in vivo
[18] = Hepatotoxicity in rat assessed as effect on portal veins at 50 mg/kg by hematoxylin and eosin staining based assay; format: toxicity, organism-based; settings: in vivo
[19] = tested on: Rattus norvegicus; assay: Anti-inflammatory activity in albino rat model of carrageenan-induced paw edema assessed as inhibition of carrageenan-induced paw edema at 100 mg/kg, po administered as single dose prior to carrageenan challenge measured after 8 hrs relative to control; format: functional
[20] = Ulcerogenic activity in rat assessed as average severity of ulcers formed at 50 mg/kg, sc qd for 4 days post 18 hrs fasting measured after 4 days; format: toxicity, organism-based; settings: in vivo, 96 h
[21] = target: T1, Prostaglandin G/H synthase 2 (Homo sapiens, UniProt P35354); assay: Inhibition of human recombinant COX2 assessed as decrease in prostaglandin production using arachidonic acid as substrate pretreated for 15 mins followed by substrate addition and measured after 2 mins by enzyme immunoassay
T1 sequence (P35354 whole entry): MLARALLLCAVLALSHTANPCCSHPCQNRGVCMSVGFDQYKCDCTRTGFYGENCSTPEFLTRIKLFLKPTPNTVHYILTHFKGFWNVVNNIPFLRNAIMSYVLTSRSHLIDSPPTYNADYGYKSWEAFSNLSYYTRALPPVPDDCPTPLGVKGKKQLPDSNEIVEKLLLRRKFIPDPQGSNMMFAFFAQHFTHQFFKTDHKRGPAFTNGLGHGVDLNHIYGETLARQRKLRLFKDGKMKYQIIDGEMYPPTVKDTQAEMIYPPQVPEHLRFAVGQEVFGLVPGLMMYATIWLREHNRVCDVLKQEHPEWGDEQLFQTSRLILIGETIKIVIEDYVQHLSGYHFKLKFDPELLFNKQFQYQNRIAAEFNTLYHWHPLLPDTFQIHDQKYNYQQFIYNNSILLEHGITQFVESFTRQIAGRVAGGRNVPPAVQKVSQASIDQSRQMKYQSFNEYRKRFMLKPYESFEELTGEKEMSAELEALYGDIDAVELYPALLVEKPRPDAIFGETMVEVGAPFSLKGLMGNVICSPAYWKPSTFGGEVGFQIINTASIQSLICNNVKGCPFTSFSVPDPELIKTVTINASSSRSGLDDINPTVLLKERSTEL

[22] = species on record: Homo sapiens; assay: Selectivity index, ratio of IC50 for human recombinant COX1 to IC50 for human recombinant COX2 using arachidonic acid as substrate
[23] = target: Prostaglandin G/H synthase 1 (Homo sapiens, UniProt P23219); assay: Inhibition of human recombinant COX1 assessed as decrease in prostaglandin production using arachidonic acid as substrate pretreated for 15 mins followed by substrate addition and measured after 2 mins by enzyme immunoassay; format: single protein
Chain of Prostaglandin G/H synthase 1 (P23219 whole entry): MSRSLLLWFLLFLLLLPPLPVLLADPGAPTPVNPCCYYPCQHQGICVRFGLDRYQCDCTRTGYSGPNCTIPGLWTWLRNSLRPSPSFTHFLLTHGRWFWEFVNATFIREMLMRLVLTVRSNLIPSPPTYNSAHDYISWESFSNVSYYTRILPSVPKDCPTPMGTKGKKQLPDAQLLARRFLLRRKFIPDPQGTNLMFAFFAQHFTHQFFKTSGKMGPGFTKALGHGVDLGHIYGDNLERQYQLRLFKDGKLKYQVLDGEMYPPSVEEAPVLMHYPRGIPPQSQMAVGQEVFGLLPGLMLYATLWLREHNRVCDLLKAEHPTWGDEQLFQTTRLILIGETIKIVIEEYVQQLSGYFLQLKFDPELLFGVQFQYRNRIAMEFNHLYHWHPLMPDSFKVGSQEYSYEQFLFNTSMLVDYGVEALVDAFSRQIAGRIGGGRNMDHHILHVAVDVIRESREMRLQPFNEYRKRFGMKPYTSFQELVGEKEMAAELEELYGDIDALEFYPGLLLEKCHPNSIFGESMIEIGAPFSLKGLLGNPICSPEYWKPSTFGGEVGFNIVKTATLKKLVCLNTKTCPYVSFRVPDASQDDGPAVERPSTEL

Row | Compound | Activity [1] | Activity [2] | Activity [3] | Activity [4] | inhibition in vivo at 100 mg/kg [5] [%] | inhibition in vivo at 100 mg/kg [6] [%] | Activity [7] | Activity [8] [%] | inhibition in vivo at 100 mg/kg [9] [%] | Activity [10] | Activity [11] | Activity [12] | Activity [13] | UI [14] | inhibition in vivo at 100 mg/kg [15] [%] | Activity [16] | Activity [17] | Activity [18] | inhibition in vivo at 100 mg/kg [19] [%] | Activity [20] | other results
1 | COc1ccc2c(c1)c(CC(=O)O)c(C)n2C(=O)c1ccc(Cl)cc1 [INDOMETHACIN] | 5 | Toxic | Toxic | Toxic | 65.2 | 80.2 | Toxic | 10 | 79.8 | Toxic | Toxic | Toxic | Toxic | 17.6 | 55.6 | Toxic | Toxic | Toxic | 62.5 | 2.6 | –
2 | Nc1nc(-c2ccccc2)cc(-c2cn(-c3ccccc3)nc2-c2ccc(OCc3ccccc3)cc2)n1 | 0.6 | Toxic | Toxic | Toxic | 83.9 | 82 | Toxic | 2 | 74.4 | Toxic | Toxic | Toxic | Toxic | 3.2 | 33.6 | Toxic | Toxic | Toxic | 40.2 | 0.6 | IC50 [21]: 2800 nM; Ratio IC50 [22]: 5.89; IC50 [23]: 16500 nM
3 | Clc1ccc(-c2cc(-c3cn(-c4ccccc4)nc3-c3ccc(OCc4ccccc4)cc3)on2)cc1 | 1.2 | Toxic | Toxic | Toxic | 42.9 | 69.8 | Toxic | 6 | 70.9 | Toxic | Toxic | Toxic | Toxic | 8.4 | 45 | Toxic | Toxic | Toxic | 48.7 | 1.2 | IC50 [21]: 1250 nM; Ratio IC50 [22]: 2.31; IC50 [23]: 2890 nM
4 | N#CC1=C(N)OC(c2ccccc2)=CC1c1cn(-c2ccccc2)nc1-c1ccc(OCc2ccccc2)cc1 (stereo unspecified) | 0.8 | Toxic | Toxic | Toxic | 54.5 | 69 | Toxic | 4 | 59.5 | Toxic | Toxic | Toxic | Toxic | 5.2 | 28.2 | Toxic | Toxic | Toxic | 42.9 | 0.4 | IC50 [21]: 720 nM; Ratio IC50 [22]: 5.58; IC50 [23]: 4020 nM
5 | S=c1nc(-c2ccc(Cl)cc2)cc(-c2cn(-c3ccccc3)nc2-c2ccc(OCc3ccccc3)cc2)[nH]1 | 1.2 | Toxic | Toxic | Toxic | 41.8 | 42.2 | Toxic | 4 | 54.4 | Toxic | Toxic | Toxic | Toxic | 6.4 | 15.5 | Toxic | Toxic | Toxic | 24.7 | 1.2 | IC50 [21]: 1100 nM; Ratio IC50 [22]: 6.54; IC50 [23]: 7200 nM
6 | O=C(/C=C/c1cn(-c2ccccc2)nc1-c1ccc(OCc2ccccc2)cc1)c1ccccc1 | 0.4 | Non-Toxic | Non-Toxic | Non-Toxic | 51.2 | 81.7 | Non-Toxic | 2 | 58.2 | Non-Toxic | Non-Toxic | Non-Toxic | Non-Toxic | 2.8 | 32.5 | Non-Toxic | Non-Toxic | Non-Toxic | 23.8 | 0.4 | IC50 [21]: 1880 nM; Ratio IC50 [22]: 8.22; IC50 [23]: 15500 nM
7 | Cc1ccc(-c2cc(C(F)(F)F)nn2-c2ccc(S(N)(=O)=O)cc2)cc1 [CELECOXIB] | 0.6 | Toxic | Toxic | Toxic | 48.1 | 56.1 | Toxic | 2 | 58.5 | Toxic | Toxic | Toxic | Toxic | 3.2 | 34.6 | Toxic | Toxic | Toxic | 44.9 | 0.6 | –
8 | CC(=O)n1nc(-c2ccccc2)cc1-c1cn(-c2ccccc2)nc1-c1ccc(OCc2ccccc2)cc1 | 0.8 | Toxic | Toxic | Toxic | 59.8 | 78.3 | Toxic | 4 | 64.6 | Toxic | Toxic | Toxic | Toxic | 6 | 57.7 | Toxic | Toxic | Toxic | 55.2 | 1.2 | IC50 [21]: 1930 nM; Ratio IC50 [22]: 6.74; IC50 [23]: 13000 nM
9 | O=C(/C=C/c1cn(-c2ccccc2)nc1-c1ccc(OCc2ccccc2)cc1)c1ccc(Cl)cc1 | 0.2 | Non-Toxic | Non-Toxic | Non-Toxic | 69.9 | 89.7 | Non-Toxic | 2 | 77.1 | Non-Toxic | Non-Toxic | Non-Toxic | Non-Toxic | 2.4 | 41.4 | Non-Toxic | Non-Toxic | Non-Toxic | 48.6 | 0.2 | IC50 [21]: 600 nM; Ratio IC50 [22]: 9.32; IC50 [23]: 5590 nM
